This test concerns the target T1, αEβ7 (Homo sapiens, UniProt P26010+P38570).
T1 construct: DNA encoding full-length alpha E was identified as follows; expressed in transfected cells; host or cells: JY cells, plasmid pMHneo/aE
T1 sequence (P38570 19-1179): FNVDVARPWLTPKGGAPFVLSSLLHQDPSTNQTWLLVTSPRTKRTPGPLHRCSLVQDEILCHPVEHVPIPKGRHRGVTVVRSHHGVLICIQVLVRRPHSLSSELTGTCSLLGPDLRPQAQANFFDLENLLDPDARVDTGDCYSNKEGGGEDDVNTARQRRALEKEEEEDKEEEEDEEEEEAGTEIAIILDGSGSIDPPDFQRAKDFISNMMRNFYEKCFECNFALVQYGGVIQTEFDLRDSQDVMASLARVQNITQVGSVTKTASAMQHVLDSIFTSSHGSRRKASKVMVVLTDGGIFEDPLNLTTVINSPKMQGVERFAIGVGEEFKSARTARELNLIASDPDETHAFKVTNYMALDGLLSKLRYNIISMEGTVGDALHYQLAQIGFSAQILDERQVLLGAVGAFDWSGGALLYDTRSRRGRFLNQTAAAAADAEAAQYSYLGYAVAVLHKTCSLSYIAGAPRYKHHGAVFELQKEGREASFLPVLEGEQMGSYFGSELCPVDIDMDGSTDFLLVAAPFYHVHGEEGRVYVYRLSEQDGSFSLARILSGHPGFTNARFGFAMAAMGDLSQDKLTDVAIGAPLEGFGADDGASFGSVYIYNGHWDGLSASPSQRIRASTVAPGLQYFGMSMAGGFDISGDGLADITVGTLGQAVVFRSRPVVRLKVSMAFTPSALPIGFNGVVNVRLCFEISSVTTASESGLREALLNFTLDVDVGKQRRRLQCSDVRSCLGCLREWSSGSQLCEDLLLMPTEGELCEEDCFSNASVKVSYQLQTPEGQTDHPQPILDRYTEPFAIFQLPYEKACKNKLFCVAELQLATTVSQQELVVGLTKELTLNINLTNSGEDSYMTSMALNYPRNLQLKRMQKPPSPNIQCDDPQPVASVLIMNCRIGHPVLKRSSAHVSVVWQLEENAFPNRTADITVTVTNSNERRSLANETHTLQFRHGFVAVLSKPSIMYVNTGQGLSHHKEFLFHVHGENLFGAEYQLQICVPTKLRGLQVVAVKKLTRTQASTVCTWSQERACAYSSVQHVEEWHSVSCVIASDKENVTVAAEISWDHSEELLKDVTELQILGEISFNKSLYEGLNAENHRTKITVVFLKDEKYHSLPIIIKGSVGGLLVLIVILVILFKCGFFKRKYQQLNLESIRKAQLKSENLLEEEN
T1 sequence (P26010 20-798 partner): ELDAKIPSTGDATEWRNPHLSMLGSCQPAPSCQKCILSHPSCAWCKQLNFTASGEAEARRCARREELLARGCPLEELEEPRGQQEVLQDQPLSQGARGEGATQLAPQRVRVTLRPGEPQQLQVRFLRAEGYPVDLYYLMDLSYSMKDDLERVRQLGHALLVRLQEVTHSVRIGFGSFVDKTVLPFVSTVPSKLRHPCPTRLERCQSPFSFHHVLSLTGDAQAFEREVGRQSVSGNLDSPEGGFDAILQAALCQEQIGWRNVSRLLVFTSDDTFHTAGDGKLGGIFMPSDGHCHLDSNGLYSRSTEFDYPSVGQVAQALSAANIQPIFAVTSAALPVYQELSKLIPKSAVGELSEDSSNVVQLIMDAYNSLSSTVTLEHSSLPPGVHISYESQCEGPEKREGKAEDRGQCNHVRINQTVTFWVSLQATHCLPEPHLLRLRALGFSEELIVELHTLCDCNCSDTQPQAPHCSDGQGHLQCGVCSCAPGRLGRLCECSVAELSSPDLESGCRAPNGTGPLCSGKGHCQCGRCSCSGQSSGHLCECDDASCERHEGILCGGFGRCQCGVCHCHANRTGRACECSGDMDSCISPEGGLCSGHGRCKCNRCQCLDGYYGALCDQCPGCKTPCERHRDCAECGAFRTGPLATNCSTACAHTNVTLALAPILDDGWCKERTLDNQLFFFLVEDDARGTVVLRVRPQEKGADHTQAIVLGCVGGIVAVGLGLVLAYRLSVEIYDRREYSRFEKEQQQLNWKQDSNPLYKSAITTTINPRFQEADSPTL
As to the kind of experiment: JY/aE+ cell adhesion to E-cadherin/Ig. It counts as cell-based. Here is the method:
Adhesion media (350 μl) (RPMI 1640 containing penicillin and streptomycin, L-glutamine, NaPy, and 5% FBS) was aliquotted into each well in rows A, C, E, G of a deepwell 96-well titer plate, 2.0 ml capacity (Beckman Instruments, Inc., Fullerton, Calif.) in columns 1-11. All compounds to be screened were dissolved in DMSO to a final concentration of 10 mM. Compounds were stored at −20° C., and thawed on the day of use in a 37° C. incubator. Each compound (2.1 μl) was pipetted into a single well in columns 3-11, rows A, C, E, and G in the deepwell titer plate. To wells not containing compound (A1 & A2, C1 & C2, E1 & E2, G1 & G2), 2.1 μl DMSO was added. An anti-β7 monoclonal antibody, FIB504 (ATCC, Rockville, Md.), which blocks αEβ7 binding activity, was added to wells C2 and G2 at a concentration of 7.5 μg/ml. Each deepwell titer plate was covered to prevent dessication and stored in a 37° C. incubator until ready for use.
Adhesion assays were performed in 96-well Immunlon 4 plates (Dynex Technologies, Inc., Chantilly, Va.) as follows. Each well was coated with 50 μl E-cadherin/Ig (3.0 μg/ml) in D-PBS. Control wells were coated with capture antibody FIB504, to quantitate 100% input cell binding, or coating buffer alone to determine background binding. Following an overnight incubation at 4° C., the plates were washed three times with 200 μl/well D-PBS and blocked with 1% BSA in D-PBS for at least 1 hour. The BSA solution was removed and 100 μl of adhesion media (RPMI 1640 containing penicillin and stretomycin, L-glutamine, sodium pyruvate, 0.1% BSA, and 60 ng/ml PMA), was added to rows B through G, columns 1 through 11.
At this point, 100 μl adhesion media containing a test compound at a concentration of 60 μM, was transferred from the deepwell 96-well titer plate, in triplicate, to the E-cadherin/Ig coated adhesion plate. The outer rows were filled with 300 μl of D-PBS. These plates were transferred to a humidified 37° C. incubator with an atmosphere of 5% CO2.
The adhesion assay was initiated by addition of 100 μl of the JY/aE^+ cell suspension to each well of the E-cadherin-coated plate. The final volume in each well was 300 μl adhesion media containing […], PMA (final concentration 20 ng/ml), and the test compound (final concentration 20 μM). The plates were incubated at 37° C. for 30 min. Each compound was tested in triplicate.
Adherent cells were fixed by the addition of 50 μl of a 14% glutaraldehyde solution in D-PBS. Plates were washed with water, stained with 100 μl/well 0.5% crystal violet (Sigma Corp., St. Louis, Mo.) solution for 5 min. Three hundred microliters/well of 70% ethanol was added, and adherent cells were quantitated by determining absorbance at 570 nm. Percentage of cell binding was determined by using the mean values for each triplicate in a given assay in the following formula. [formula]
During the initial screening of test compounds, each chemical entity was tested in cell-based adhesion assays at a fixed concentration of 20 μM. Those compounds that blocked JY/αEβ7-dependent adhesion to E-cadherin/Ig by 50% or more were subsequently retested at multiple concentrations to determine the inhibitory concentration at which cell binding is reduced by 50%, i.e., the IC50 value.
For each IC50 assay, 50 μl of the ligand diluted in 50 mM bicarbonate buffer (pH 9.6) was dispensed per well of an Immulon-4 plate. A single plate was used to test two different ligands, each in triplicate, The coating concentration for the various ligands was as follows: VCAM-1/Ig at 2.0 μg/ml; ICAM-1/Ig at 5.0 μg/ml; vitronectin at 0.5 μg/ml; MAdCAM-1/Ig at 3.0 μg/ml, and iC3b at 5.0 μg/ml. The capture antibody, e.g. anti-CD18 monoclonal antibody TS1/22, was added at a concentration of 10 μg/ml in 50 μl/well. Ligand-coated plates were covered and stored overnight at 4° C. The following day, the contents of each well was decanted, and each plate was washed three times with 200 μl/well D-PBS. […]

The mark [1] stands for this setting: PMA-treated JY cells, read-out: E-cadher αEβ7 IC50.
The mark [2] stands for this setting: reproducible inhibitory activity on re-analysis, read-out: IC50, inhibition of JY/aE+ binding to E-cadherin.

pIC50: −log10 of the molar value. Like-named read-outs stand apart in the source and are kept apart here.

For `CC(CN(C)C)NCc1ccccc1Sc1ccc(C(C)(C)C)cc1` (centres unmarked) [Cmpd Z], the pIC50 by setting is: under setting [1], 5.52; under setting [2], above 5.00.

For `Nc1ccc(Sc2ccc(NC(=O)CCc3ccccc3)cc2)c(Cl)c1` [Cmpd W], the pIC50 by setting is: under setting [1], 5.30; under setting [2], above 5.00.

In the case of `CC(=O)Oc1ccccc1C(=O)n1c(-c2ccccc2)cc2ccccc21` [Cmpd D], the pIC50 is 5.52 under setting [1] and above 5.00 under setting [2].

In the case of `O=C(NCc1cccnc1)c1ccccc1C(=O)Nc1sc2ccccc2c1Cl` [Cmpd K], the pIC50 by setting is: under setting [1], 5.52; under setting [2], above 5.00.
